The source of these data is paper PMC6852045 (International Journal of Cosmetic Science, 2019).

The target of the experiment is T1, peroxisome proliferator-activated receptor-α (PPARα) (Homo sapiens, UniProt Q07869).
T1 sequence (Q07869 196-468 limits assumed): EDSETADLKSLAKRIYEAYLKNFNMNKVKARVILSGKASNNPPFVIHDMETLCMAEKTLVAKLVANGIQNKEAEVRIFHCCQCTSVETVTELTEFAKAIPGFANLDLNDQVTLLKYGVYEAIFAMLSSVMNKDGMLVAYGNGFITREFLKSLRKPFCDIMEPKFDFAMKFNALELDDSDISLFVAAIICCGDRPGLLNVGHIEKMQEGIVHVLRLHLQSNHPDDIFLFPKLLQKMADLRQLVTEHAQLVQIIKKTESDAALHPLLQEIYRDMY
As to the kind of experiment: GAL4-PPARα LBD one-hybrid luciferase transactivation assay in HEK293 cells. It is filed as cell-based.

As to `CCCCCCCC[C@@H](O)CCCCCCCCC(=O)O` [HSA, (R)‐10‐hydroxyoctadecanoic acid], it took 5.43 µM to reach a half-maximal effect (EC50).
